Test: Biochemical Assay: EZH2 biochemical assay (IC50): Compound potencies were assessed through incorporation of 3H-SAM into a biotinylated H3 peptide. Specifically, 30 pM PRC2 containing wt EZH2 (pentameric complex prepared in-house) was pre-incubated with 450 nM SAM, 450 nM 3H-SAM, 2 μM H3K27me3 activating peptide (H2N-RKQLATKAAR(Kme3)SAPATGGVKKP-amide) and compounds (as 10 point duplicate dose response titrations in DMSO, final assay 0.8% DMSO (v/v)) for 3-5 h in 50 mM Tris (pH 8.5), 1 mM DTT, 0.07 mM Brij-35, 0.1% BSA, and 0.8% DMSO in a total volume of 12.5 μl. Reaction was initiated with biotinylated H3 substrate peptide (H2N-RKQLATKAAR(Kmel)SAPATGGVKKP-NTPEGBiot) as a 2 μM stock in 12.5 μl of buffer and allowed to react at room temperature for 18-22 h. Quenching was accomplished by addition of 20 μl of STOP solution (50 mM Tris (pH 8.5), 200 mM EDTA, 2 mM SAH). 35 μl of the quenched solution was transferred to streptavidin coated FlashPlates (PerkinElmer), incubated 1-2 h, washed, and read in a TopCount Reader (PerkinElmer). IC50s were calculated in Genedata Screener using non-linear least square four parameter fits, where the four parameters were IC50, Hill slope, pre-transitional baseline (0% INH), and post-transitional baseline (100% INH).

IC50: > 0.01 µM
Structure (SMILES): Cc1cc(Cl)c(CNC(=O)c2cc(Cl)c3c(c2C)OC(C)(C2CCN(CC(F)(F)F)CC2)O3)c(=O)[nH]1 (single isomer, unassigned)
